Reference: article PMC10041534, “Development of Fluorescent 4-[4-(3H-Spiro[isobenzofuran-1,4′-piperidin]-1′-yl)butyl]indolyl Derivatives as High-Affinity Probes to Enable the Study of σ Receptors via Fluorescence-Based Techniques” (Journal of Medicinal Chemistry, 2023)
Where “and” joins values, the source holds several entries; their conditions need not be identical. Identical values can stand only once. Like-named read-outs stand apart in the source and are kept apart here. Marks after values point to notes of the source that are not given here.

Experiments:
σ1 receptor [1] = settings: Figure 1 reference compounds and fluorescent ligands; cited from earlier work
σ2 receptor [2] = settings: cited from earlier work
σ2 receptor [3] = target: T1, σ2 receptor (Homo sapiens, UniProt Q5BJF2); assay: Flow cytometry σ2 receptor binding assay with fluorescent ligand in place of the radioligand, MCF7 cells; design: This cell line was selected on the basis of its high σ2 receptor expression levels; endogenous in cells; host or cells: MCF7 (and MCF7KO, partial TMEM97 knockdown by shRNA)
T1 sequence (Q5BJF2 whole entry): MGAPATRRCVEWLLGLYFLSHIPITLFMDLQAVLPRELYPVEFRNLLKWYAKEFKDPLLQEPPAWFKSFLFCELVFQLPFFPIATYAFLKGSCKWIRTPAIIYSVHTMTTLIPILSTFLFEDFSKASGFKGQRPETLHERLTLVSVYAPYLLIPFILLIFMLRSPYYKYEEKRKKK
Procedure: Similarly, 2 × 10^5 MCF7 cells/well were seeded in a 12-well plate and allowed to recover for 24 h at 37 °C.
At the end of the incubation periods, cells were washed twice with PBS, detached with 200 mL of Cell Dissociation Solution (Sigma Chemical Co.) for 10 min at 37 °C, centrifuged at 13000g for 5 min, and resuspended in 500 mL of PBS. The fluorescence was recorded using a Bio-Guava easyCyte 5 Flow Cytometry System (Millipore, Billerica, MA), with a 530 nm band-pass filter. For each analysis, 50000 events were collected and analyzed with the InCyte software (Millipore).

σ2 receptor [4] = target: T2, σ2 receptor (Rattus norvegicus, UniProt Q5U3Y7); assay: σ2 receptor radioligand binding assay with [3H]DTG, rat liver membranes; settings: for σ2 selectivity over σ1: from Ki values at σ1 and σ2; for Ki: [3H]DTG with 1 μM (+)-pentazocine, rat liver membranes, mean of at least two experiments in duplicate, read-out: Ki ± SEM σ2
T2 construct: from tissue; host or cells: rat liver (Wistar Hannover rats, Envigo)
T2 sequence (Q5U3Y7 1-176): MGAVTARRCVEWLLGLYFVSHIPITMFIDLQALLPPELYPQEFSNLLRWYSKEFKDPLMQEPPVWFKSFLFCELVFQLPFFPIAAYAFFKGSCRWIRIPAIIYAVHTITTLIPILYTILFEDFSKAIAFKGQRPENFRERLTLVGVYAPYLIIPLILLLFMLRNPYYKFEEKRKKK
Procedure: (§1) All of the procedures for the binding assays were previously described. σ1 and σ2 receptor binding assays were carried out according to the literature.[25] […] Incubations were stopped by addition of 1 mL of ice-cold buffer [50 mM TRIS (pH 8.0)], and then the suspension was filtered through GF/B presoaked in 0.3% polyethylenimine (PEI) for at least 60 min prior to use. The filters were washed twice with 1 mL of ice-cold buffer. […] Incubations were stopped by addition of 1 mL of ice-cold buffer [50 mM TRIS (pH 8.0)], and then the suspension was filtered through GF/B presoaked in 0.5% polyethylenimine (PEI) for at least 60 min prior to use. The filters were washed twice with 1 mL of ice-cold buffer. […] Scatchard parameters (Kd and Bmax) and apparent inhibition constants (Ki) were determined by nonlinear curve fitting using GraphPad Prism (version 5.0).[64]

σ1 receptor [5] = target: T3, σ1 receptor (Cavia porcellus, UniProt Q60492); assay: σ1 receptor radioligand binding assay with (+)-[3H]pentazocine, guinea pig brain membranes; settings: mean of at least two experiments in duplicate, read-out: Ki ± SEM σ1
T3 construct: from tissue; host or cells: guinea pig brain without cerebellum (male Dunkin guinea pigs, Envigo)
T3 sequence (Q60492 whole entry): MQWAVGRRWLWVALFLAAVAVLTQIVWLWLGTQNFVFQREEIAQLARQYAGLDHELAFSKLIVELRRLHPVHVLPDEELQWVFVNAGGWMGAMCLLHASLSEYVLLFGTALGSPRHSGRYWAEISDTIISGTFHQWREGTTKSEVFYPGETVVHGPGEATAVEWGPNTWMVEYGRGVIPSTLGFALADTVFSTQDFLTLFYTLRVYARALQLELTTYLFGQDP
Procedure: as §1

[6] = Fluorescence spectroscopy and quantum yield measurements; type: physicochemical
σ2 receptor [7] = target: T1, σ2 receptor; assay: Flow cytometry studies in MCF7 and MCF7KO cells; type: cell-based; design: This cell line was selected on the basis of its high σ2 receptor expression levels; endogenous in cells; host or cells: MCF7 (and MCF7KO, partial TMEM97 knockdown by shRNA); settings: flow cytometry, data not shown
Procedure: Subsequently, the cells were harvested by trypsinization and resuspended in 250 μL of FACS-PBS. The fluorescence intensity was measured by flow cytometry using a BD LSRFortessaTM X-20 cell analyzer (Becton Dickinson, Palo Alto, CA). For this, in total 20000 cells per sample were evaluated. The results were analyzed and quantified using BD FACSDivaTM software.

[8] = Figure 1 reference compounds and fluorescent ligands, read-out: σ2 Ki

| Structure (SMILES) | σ2 selectivity over σ1 (σ2 receptor [4]) | Ki (σ1 receptor [5]) [nM] | Ki (σ2 receptor [4]) [nM] | quantum yield ([6]; CHCl3) | λem ([6]; CHCl3) [nm] | λex ([6]; CHCl3) [nm] | other results |
| --- | --- | --- | --- | --- | --- | --- | --- |
| COc1cc2c(cc1OC)CN(CCCN1CCc3c(OC)cccc3C1=O)CC2 [Compound 2] |  |  |  |  |  |  | Ki (σ1 receptor [1]): 2440 nM; Ki (σ2 receptor [2]; [8]): 4.24 nM; Ki (σ2 receptor [3]; displacement of compound 19 (100 nM)): 4.07 nM; Ki (σ2 receptor [3]; displacement of compound 29 (100 nM)): 5.04 nM |
| COc1cc2c(cc1OC)CN(CCCN1CCc3c(OCCCCCCN4C(=O)c5ccc(N(C)C)cc5C4=O)cccc3C1=O)CC2 [Compound 3] |  |  |  |  |  |  | Ki (σ1 receptor [1]): > 5000 nM |
| CC1CCN(CCCCc2cccc3cc(OCCCCCCN4C(=O)c5ccc(N(C)C)cc5C4=O)ccc23)CC1 [Compound 5] |  |  |  |  |  |  | Ki (σ1 receptor [1]): 5.2 nM; Ki (σ2 receptor [2]; [8]): 45.6 nM |
| c1ccc2c(c1)COC21CCN(CCCCn2ccc3ccccc32)CC1 [Compound 8, reference compound] | 60 fold |  |  |  |  |  | Ki (σ2 receptor [2]; [8]): 0.43 nM |
| CN(C)c1ccc2c(c1)C(=O)N(CCCn1cc(CCCCN3CCC4(CC3)OCc3ccccc34)c3ccccc31)C2=O [Compound 16, 2-(3-{3-[4-(3H-Spiro[isobenzofuran-1,4′-piperidin]-1′-yl)butyl]-1H-indol-1-yl}propyl)-5-(dimethylamino)isoindoline-1,3-dione] | 3–10 fold | 39.3 ± 9 | 10.1 ± 1.1 | 6.85% | 490 | 395 | signals in MCF7 cells (σ2 receptor [7]): dose-dependent signals; signals in MCF7 cells upon administration of 2 (σ2 receptor [7]): abated |
| CN(C)c1ccc2c(c1)C(=O)N(CCCCCCn1cc(CCCCN3CCC4(CC3)OCc3ccccc34)c3ccccc31)C2=O [Compound 17, 2-(6-{3-[4-(3H-Spiro[isobenzofuran-1,4′-piperidin]-1′-yl)butyl]-1H-indol-1-yl}hexyl)-5-(dimethylamino)isoindoline-1,3-dione] | 3–10 fold | 38.1 ± 5.2 | 3.84 ± 0.8 | 6.85% and 6.80% | 490 | 395 | signals in MCF7 cells (σ2 receptor [7]): dose-dependent signals; signals in MCF7 cells upon administration of 2 (σ2 receptor [7]): abated |
| O=C(COc1ccc(-c2ccc3n2[B-](F)(F)[N+]2=C(c4cccs4)C=CC2=C3)cc1)NCCCCCCn1cc(CCCCN2CCC3(CC2)OCc2ccccc23)c2ccccc21 [Compound 18, N-(6-{3-[4-(3H-Spiro[isobenzofuran-1,4′-piperidin]-1′-yl)butyl]-1H-indol-1-yl}hexyl)-2-{4-[5,5-difluoro-7-(thiophen-2-yl)-5H-5λ^4,6λ^4-dipyrrolo[1,2-c:2′,1′-f][1,3,2]diazaborinin-3-yl]phenoxy}acetamide] |  | 473 ± 30 | 220 ± 12 |  |  |  | λem ([6]; dissolved in CH3OH): 630 ^b nm; λex ([6]; dissolved in CH3OH): 587 ^b nm |
| C[N+]1=C(/C=C/C=C/C=C/C=C2\N(CCCCCC(=O)NCCCCCCn3cc(CCCCN4CCC5(CC4)OCc4ccccc45)c4ccccc43)c3ccccc3C2(C)C)C(C)(C)c2ccccc21.[I-] [Compound 20, 2-{(1E,3E,5E)-7-[(E)-1-{6-[(6-{3-[4-(3H-Spiro[isobenzofuran-1,4′-piperidin]-1′-yl)butyl]-1H-indol-1-yl}hexyl)amino]-6-oxohexyl}-3,3-dimethylindolin-2-ylidene]hepta-1,3,5-trien-1-yl}-1,3,3-trimethyl-3H-indol-1-ium] |  | 88.8 ± 15.1 | 39.8 ± 4.2 | 39.08% | 787 | 762 |  |
| CN(C)c1ccc2c(c1)C(=O)N(c1ccc3ccn(CCCCN4CCC5(CC4)OCc4ccccc45)c3c1)C2=O [Compound 23, 2-{1-[4-(3H-Spiro[isobenzofuran-1,4′-piperidin]-1′-yl)butyl]-1H-indol-6-yl}-5-(dimethylamino)isoindoline-1,3-dione] | 60 fold | 296 ± 71 | 5.07 ± 1.07 | 1.31% | 490 | 395 | signals in MCF7 cells (σ2 receptor [7]): dose-dependent signals; signals in MCF7 cells upon administration of 2 (σ2 receptor [7]): abated |
| O=C(COc1ccc(C2=[N+]3C(=Cc4ccc(-c5cccs5)n4[B-]3(F)F)C=C2)cc1)Nc1ccc2ccn(CCCCN3CCC4(CC3)OCc3ccccc34)c2c1 [Compound 28, N-{1-[4-(3H-Spiro[isobenzofuran-1,4′-piperidin]-1′-yl)butyl]-1H-indol-6-yl}-2-{4-[5,5-difluoro-7-(thiophen-2-yl)-5H-5λ^4,6λ^4-dipyrrolo[1,2-c:2′,1′-f][1,3,2]diazaborinin-3-yl]phenoxy}acetamide] |  | > 5000 |  |  |  |  | λem ([6]; dissolved in CH3OH): 630 ^b nm; λex ([6]; dissolved in CH3OH): 587 ^b nm |
| C[N+]1=C(/C=C/C=C/C=C/C=C2/N(CCCCCC(=O)Nc3ccc4ccn(CCCCN5CCC6(CC5)OCc5ccccc56)c4c3)c3ccccc3C2(C)C)C(C)(C)c2ccccc21.[I-] [Compound 30, 2-[(1E,3E,5E)-7-{(Z)-1-[6-({1-[4-(3H-Spiro[isobenzofuran-1,4′-piperidin]-1′-yl)butyl]-1H-indol-6-yl}amino)-6-oxohexyl]-3,3-dimethylindolin-2-ylidene}hepta-1,3,5-trien-1-yl]-1,3,3-trimethyl-3H-indol-1-ium] | ~10 fold | 569 ± 85 | 39.4 ± 6.1 | 40.24% | 787 | 762 |  |
| CC1CCN(CCOc2ccc(Cl)cc2)CC1 [Compound 31, 1-[2-(4-chlorophenoxy)ethyl]-4-methylpiperidine] |  |  |  |  |  |  | Ki (σ2 receptor [2]; read-out: Ki at the σ2 receptor): 239 nM |
